Data reported in US20250134855A1, “CO[…] AND METHODS OF USING SAME” (LYKOS THERAPEUTICS, INC., priority 2022, published 2025).

Tested on: participants with PTSD of moderate or greater severity
Assay: MAPP2 Phase 3: CAPS-5 total severity score
Format: in vivo, human
Details: for Change from Baseline in CAPS-5 Total Severity Score, LS Mean for Treatment Difference / Change from Baseline in CAPS-5 Total Severity Score, LS Mean / CAPS-5 Total Severity Score, Mean / CAPS-5 Total Severity Score, Median / Change from Baseline in CAPS-5 Total Severity Score, Mean / Change from Baseline in CAPS-5 Total Severity Score, Median / Loss of Diagnosis, % / Non-Responder, % / Remission, % / Responder (10-point reduction in CAPS-5 Total Severity Score), %: MAPP2, mITT; for Change from Baseline in CAPS-5 Total Severity Score, LS Mean for Treatment Difference: vs placebo; for Change from Baseline in CAPS-5 Total Severity Score, LS Mean / CAPS-5 Total Severity Score, Mean / CAPS-5 Total Severity Score, Median / Change from Baseline in CAPS-5 Total Severity Score, Mean / Change from Baseline in CAPS-5 Total Severity Score, Median: de jure
From the text: FIG. 36 and FIG. 37 show the time course of improvement in Clinician Administered PTSD Scale for DSM-5 (CAPS-5) total severity score versus placebo. Each show a treatment difference between MDMA and placebo after 3 medication sessions with psychological intervention. […] Between the second and third treatment sessions, the difference between the groups appeared to continue to increase in both studies. The primary efficacy measure was change from baseline in the CAPS-5 total severity score at 18 weeks, which was evaluated 2 months after the final dosing session. The CAPS-5 is a 30-item, clinician-rated scale used to assess severity of PTSD symptoms and diagnostic status according to DSM-5 criteria, as described herein. Scores on the CAPS 5 range from 0 to 80, with higher scores indicating more severe PTSD symptoms. In both studies, a secondary efficacy measure was change from baseline in Sheehan Disability Scale (SDS) mean item scores at 18 weeks. The modified SDS is a 3-item, clinician-rated scale measuring the degree of functional impairment in work, family, and social life. Scores on the SDS mean items range from 0 to 10, with higher scores indicating more functional impairment. In these studies, the efficacy assessments were administered by blinded independent raters 18 to 30 days after medication sessions 1 and 2.
MAPP2 was a Phase 3 randomized, placebo-controlled, 2-arm, double-blind, multi-site study conducted to investigate the efficacy and safety of MDMA-AT in participants with PTSD of moderate or greater severity. This study included 3 experimental sessions of therapy combined with either MDMA or placebo. During Experimental Session 1, participants received a split dose of 120 mg (80 mg+40 mg). Participants received an escalated split dose of 180 mg during Experimental Sessions 2 and 3 unless there were tolerability issues or the participant declined.
The primary outcome measure, the CAPS-5, evaluated changes in PTSD symptom severity and the secondary outcome measure, the SDS, evaluated changes in functional impairment. Both measures were assessed by a blinded centralized language-specific IR pool.
A de jure estimand of treatment efficacy was used to estimate the causal effect of MDMA-AT on PTSD symptom severity as measured by the change from Baseline to Visit 19 in CAPS-5 total severity scores in the mITT analysis set. […] Differences in treatment effect among demographic, dissociative sub-type, and overnight stay subgroups were not observed.

[1] = Baseline to Primary Outcome T4 (Visit 19)
[2] = Primary Outcome CAPS-5 T4 (Visit 19)

CNC(C)Cc1ccc2c(c1)OCO2 (stereo not shown) [MDMA, 3,4-methylenedioxymethamphetamine]
onset of treatment efficacy (CAPS-5 versus placebo) (FIG. 36 and FIG. 37, both studies): after the second session
Change from Baseline in CAPS-5 Total Severity Score, LS Mean for Treatment Difference (MMRM, T2 (Visit 8)): −4.14
Change from Baseline in CAPS-5 Total Severity Score, LS Mean for Treatment Difference (MMRM, T3 (Visit 13)): −7.98
Change from Baseline in CAPS-5 Total Severity Score, LS Mean for Treatment Difference (MMRM, T4 (Visit 19)): −8.91
Change from Baseline in CAPS-5 Total Severity Score, LS Mean (MMRM, Baseline to Primary Outcome T4 (Visit 19)): −23.69
Change from Baseline in CAPS-5 Total Severity Score, LS Mean (MMRM, Baseline to T2 (Visit 8)): −11.36
Change from Baseline in CAPS-5 Total Severity Score, LS Mean (MMRM, Baseline to T3 (Visit 13)): −18.58
CAPS-5 Total Severity Score, Mean (Baseline CAPS-5 T1 (Visit 3)): 39.4
CAPS-5 Total Severity Score, Median (Baseline CAPS-5 T1 (Visit 3)): 39.0
Change from Baseline in CAPS-5 Total Severity Score, Mean [1]: −23.5
Change from Baseline in CAPS-5 Total Severity Score, Median [1]: −25.0
Change from Baseline in CAPS-5 Total Severity Score, Mean (Baseline to T2 (Visit 8)): −11.3
Change from Baseline in CAPS-5 Total Severity Score, Median (Baseline to T2 (Visit 8)): −12.0
Change from Baseline in CAPS-5 Total Severity Score, Mean (Baseline to T3 (Visit 13)): −18.5
Change from Baseline in CAPS-5 Total Severity Score, Median (Baseline to T3 (Visit 13)): −20.0
CAPS-5 Total Severity Score, Mean (CAPS-5 T2 (Visit 8)): 28.1
CAPS-5 Total Severity Score, Median (CAPS-5 T2 (Visit 8)): 30.0
CAPS-5 Total Severity Score, Mean (CAPS-5 T3 (Visit 13)): 20.9
CAPS-5 Total Severity Score, Median (CAPS-5 T3 (Visit 13)): 19.0
CAPS-5 Total Severity Score, Mean [2]: 15.8
CAPS-5 Total Severity Score, Median [2]: 15.5
Loss of Diagnosis, % (CAPS-5 T2 (Visit 8)): (39.6) %
Non-Responder, % (CAPS-5 T2 (Visit 8)): (47.2) %
Remission, % (CAPS-5 T2 (Visit 8)): (9.4) %
Responder (10-point reduction in CAPS-5 Total Severity Score), % (CAPS-5 T2 (Visit 8)): (52.8) %
Loss of Diagnosis, % (CAPS-5 T3 (Visit 13)): (60.4) %
Non-Responder, % (CAPS-5 T3 (Visit 13)): (22.6) %
Remission, % (CAPS-5 T3 (Visit 13)): (26.4) %
Responder (10-point reduction in CAPS-5 Total Severity Score), % (CAPS-5 T3 (Visit 13)): (77.4) %
Loss of Diagnosis, % [2]: (71.2) %
Non-Responder, % [2]: (13.5) %
Remission, % [2]: (46.2) %
Responder (10-point reduction in CAPS-5 Total Severity Score), % [2]: (86.5) %
change from Baseline to Visit 19 in CAPS-5 total severity scores (MAPP2, MMRM, de jure estimand, mITT): −23.69
no longer met PTSD diagnostic criteria (MAPP2, Visit 19): 71.2%
remission (CAPS-5 ≤11 and no longer meeting PTSD diagnostic criteria) (MAPP2, Visit 19): 46.2%
responders (10-point reduction in CAPS-5 total severity score) (MAPP2, Visit 19): 86.5%
